Experimental data taken from patent US9593146B2, “CD44v6-derived peptides for treating metastasizing cancer” (AMCURE GMBH, priority 2012, dated 2017).

Columns and labels:
[1] = tested on: HUVEC; assay: HUVEC spheroid sprouting assay; type: cell-based, human; conditions: 100 ng/ml peptide, VEGFs 40 ng/ml, 48 h
Procedure: FIG. 19: Spheroids of HUVECs (750 cells) were generated in hanging drops. They were suspended in Endothelial Cell Growth Medium containing 1 mg/ml rat tail collagen I and 0.6% (wt/vol) methylcellulose and distributed in 48-well plates (30 spheroids/well). After solidification at 37° C. the mixture was overlaid with Endothelial Cell Growth Medium containing 100 ng/ml v6 peptide (human v6 14mer) or control peptide and VEGFs (40 ng/ml). Pictures were taken 48 h later and sprouting was quantified with the computer program ImageJ.
Clusters of HUVEC cells, so-called spheroids, were generated in hanging drops and embedded in a three-dimensional collagen matrix. They were overlaid with medium containing the blocking substances and the growth factors. Activated by the growth factors VEGF-A165 and VEGF-A121 the ECs started to grow out of the spheroids (FIG. 19). […] Sprouting of the ECs was quantified by analysing the total length of all sprouts originating from one spheroid.

[2] = tested on: ErbB receptors; assay: EGF / TGFα induced Erk phosphorylation in MCF7; type: cell-based, human; conditions: 100 ng/ml peptide
[3] = tested on: L3.6pl cells; assay: Human orthotopic model of pancreatic cancer, L3.6pl cells in nude mice; type: in vivo
Procedure: In the case of the human orthotopic model, L3.6pl pancreatic carcinoma cells (passage 24-26) were suspended in Hank's balanced salt solution (Invitrogen, Karlsruhe, Germany) after trypsinization. The cells were injected orthotopically in the pancreas of male nude mice as described (Bruns C J et al. (1999) Neoplasia 1(1):50-62). Two groups of 15 mice each were injected i.p. 7 days later with either the human v6 peptide respectively rat control peptide (20 μg). For all experiments described and depicted herein either the rat 14mer control peptide or the human 14mer peptide were used. All experiments were then repeated with the rat 5mer control peptide or the human 5mer peptide (N-R-W-H-E, SEQ ID NO: 2). […] The injection was repeated three times per week for 21 days. Two days after the last treatment the animals were killed. […]
A comparison of different CD44v6 peptide derivatives was performed in animals bearing a orthotopic L3.6pl tumor. 10 groups of 5 animals each received a dose of 20 μg peptide per injection three times per week for 3 weeks with the compounds listed in Table 4. Three weeks after starting the treatment the animals were sacrificed and analyzed for macroscopic metastases and tumor volume.

[4] = tested on: L3.6pl cells; assay: Regression of established metastases, L3.6pl orthotopic mouse model; type: in vivo, nude mice; conditions: treatment started three weeks after implantation; human v6 peptide or rat control peptide 20 μg i.p.
Procedure: In order to examine the regression of metastases (either BSp73ASs6 or L3.6pl) were implanted as described above. Tumor growth was allowed for three weeks. At that time all animals had developed metastases in the control group. Animals were injected i.p. with 20 μg (L3.6pl orthotopic mouse model: human v6 peptide or rat control peptide) or i.v. with 200 μg (rat syngeneic model: rat v6 peptide or mouse control peptide) of peptides three times per week. Animals were killed 23 days after the start of the peptide treatment.
The specific binding of the CD44v6 peptides to specific areas of the lungs in the rat system and of the liver in the human model raises the question whether these peptides might have an effect on already established metastases. In the experiments described in FIGS. 2 and 4 the peptides were applied early after injection of the tumor cells and repressed completely the establishment of metastases. In order to measure the effect of the CD44v6 peptide on already established metastases, other experimental settings were used. […] At the end of the experiments metastases could be detected in all animals treated with the control peptide (Table 3, FIG. 6B for the BSp73ASs6 cells, Table 3, FIG. 6C for L3.6pl cells) whereas animals treated with the species-specific CD44v6 peptides were free of metastasis. […]

[5] = tested on: HUVECs and HAOECs; assay: Scratch closure assay, EC migration; type: cell-based, human; conditions: 24 hours
Procedure: FIG. 18: CD44v6 is required for EC migration. HUVECs and HAOECs were grown to confluence and a wound was made into the cell monolayer with a sterile pipette tip. After washing the cells were incubated with the antibody against CD44v6, the CD44v6 peptide (human v614mer) or the control peptide as indicated. The ligands HGF, VEGF-A165 or VEGF-A121 were added and migration of the ECs was analysed after 24 hours. The numbers indicate the percentage of free area in the scratch area quantified by the computer program ImageJ.
In this assay the requirement for CD44v6 for cell migration was tested. In a scratch closure assay migration of either vein or artery ECs was tested. These cells were grown to confluence and a scratch was made into the confluent monolayer using a sterile pipette-tip. The cells lining the scratch border started to migrate into this empty space in order to close the gap. In presence of either HGF, VEGF-A165, or VEGF-A121 the cells migrated faster than in absence of the ligands and the scratch was closed within one day.

[6] = tested on: hVEGF; assay: Human VEGF in cell culture supernatant of L3.6pl cells; type: cell-based; conditions: 200 ng/ml peptide in the culture medium, 5 days
Procedure: Determination of human HGF and VEGF levels in cell culture medium of L3.6pl cells were performed using the Quantikine Human HGF Immunoassay and Quantikine Human VEGF Immunoassay from Roche (Mannheim, GER) and R&D Systems (Wiesbaden, Germany). For this purpose 3×10^6 cells were cultured for 5 days in a 15 cm plate in the presence of the respective peptides as indicated. The supernatant (20 ml) was centrifuged (1200 rpm) and the assay was performed according to manufacturer's instructions.

[7] = 20 μg i.p. three times per week for three weeks, start 7 days after implantation

KEQWFGNRWHEGYR [human 14mer, human CD44v6 14mer peptide]
sprouting in response to VEGF-A (VEGF-A165, VEGF-A121) [1]: blocked completely
Erk phosphorylation upon EGF treatment ([2]; 20 ng/ml EGF (FIG. 16)): blocking of Erk phosphorylation upon EGF treatment
Erk phosphorylation upon TGFα induction ([2]; 20 ng/ml TGFα (FIG. 16)): not upon TGFα induction
metastatic spreading at 10 μg ([3]; 10 μg per injection, three times per week for 3 weeks): complete inhibition of metastatic spreading
tumor angiogenesis (vessel number and vessel size, CD31) ([3]; 20 μg i.p. three times per week for three weeks): decreased angiogenesis
Met activation in the tumor (phospho-Met immunofluorescence) [3, 7]: completely repressed Met activation
outgrowth of the primary tumor in the pancreas [3, 7]: strongly repressed
metastasis formation (liver) ([3]; 20 μg i.p. three times per week for three weeks, start 7 days after implantation, listed as SEQ ID No.: 6): capable of inhibiting metastasis
metastasis formation (liver) ([3]; 20 μg i.p. three times per week for three weeks, start 7 days after implantation, listed as human-specific peptide): completely inhibited metastasis formation within the liver
reduction of tumor size, ranking (side-by-side comparison) ([3]; 20 μg per injection three times per week for 3 weeks (FIG. 23A)): strongest reduction of tumor size
variability in the individual tumor size within the group ([3]; 20 μg per injection three times per week for 3 weeks (FIG. 23B)): low variability
metastatic spreading to the liver (side-by-side comparison) ([3]; 20 μg per injection three times per week for 3 weeks (FIG. 24)): complete inhibition of metastasis
tumor growth compared to the control peptide (side-by-side comparison) ([3]; 20 μg per injection three times per week for 3 weeks, 5 animals per group): significant reduction in tumor growth
liver metastases at 0.2 and 2 μg ([3]; 0.2 and 2 μg per injection, three times per week for 3 weeks): showed liver metastases but the average number of metastases per animal was reduced
size / growth of the primary tumor (dose reduction study) ([3]; three injections per week for 3 weeks, compared to control groups (FIG. 22C)): significant decrease of the size of the primary tumor
presence of already established (liver) metastases after treatment [4]: eliminate already established metastases
EC migration induced by HGF, VEGF-A165 or VEGF-A121 [5]: reduced to basal levels
hVEGF secretion by L3.6pl cells [6]: can be blocked
